Source: patent publication US12297182B2, “Compositions comprising an urolithin compound” (Amazentis SA, priority 2015, dated 2025)
Each block holds one compound with its values, some of them ahead of it.

Key:
[1] = parameters: species or system male Sprague-Dawley rats; settings: rat, in vivo, po
Experimental: The solutions for gavage were prepared as follows: 35 mg of urolithin A powder was diluted in 7 ml of 15% DMSO, 0.5% methyl cellulose/0.25% Tween 80 in water, resulting in a 5 mg/ml fine suspension. The DMSO was obtained from BDH, methyl cellulose was obtained from Sigma, and Tween 80 was obtained from Sigma-Aldrich.
Blood was collected from the rats by jugular vein cannulation at different time points, and urolithin A was quantified in the plasma to determine its pharmacokinetic profile following oral gavage of Sample #1, Sample #2, and Sample #3. The study was repeated on three rats for each sample. […]

[2] = test system: 22 month old C57BL/6J old mice; experiment: Treadmill endurance test in old mice fed a high protein diet with or without Urolithin A; assay type: in vivo; settings: Urolithin A 50 mg/kg/day in high protein diet, 6 weeks, normalized over basal values, compared to mice receiving only a protein diet; no exercise regimen
Description: To mimic age related muscle loss in humans, an experimental animal model was setup in old mice. The control diet designed to be used in the experimental study was a high protein diet that would be analogous to a clinically recommended high protein diet in elderly humans at risk of muscle loss. The diet was formulated to improve the performance of old animals that consume them. The high protein diet has a better balance of essential nutrients (amino acids, vitamins and minerals) and is supplemented with 200 gr casein per kg of diet, instead of 140 gr of casein in the regular maintenance diet (Reeves PG, J. Nutr. 1997, 127(5) 838S-841S). Casein proteins are nutritionally complete, highly digestible proteins with high amino scores that contain all amino acids in amounts sufficient to support maintenance of all body proteins. Urolithin A was admixed to the high protein diet at a level of 0.57 g per kg of diet. Both the diets were isocaloric. 22 month old C57BL/6J old mice that would be equivalent to a 65 yr to 75 yr old elderly human were treated with either the high protein diet alone or a high protein diet containing Urolithin A. Both the diets contained in addition to the casein protein, essential nutrient for optimal muscle function such as L-cysteine and vitamins and mineral mix. The level of Urolithin A in the diet results in a dose of 50 mg/kg/day delivered to mice. […]

[3] = test system: myotubes; settings: in vitro; cited from earlier work

fold increase in the Cmax ([1]; male, Sprague-Dawley, 25 mg/kg): 2.16 fold | relative increase in the AUC ([1]; male, Sprague-Dawley, 25 mg/kg): 28% | relative increase in the Cmax ([1]; male, Sprague-Dawley, 25 mg/kg): 116%
Structure (SMILES): O=c1oc2cc(O)ccc2c2ccc(O)cc12 [Sample #2, Urolithin A]

bioavailability (in words) [1]: increase in bioavailability
Structure (SMILES): O=c1oc2cc(O)ccc2c2ccc(O)cc12 [Urolithin A]
increase in running distance [2]: 42% | increase in running time [2]: 28%

Structure (SMILES): O=c1oc2cc(O)ccc2c2ccccc12 [Urolithin B]
effect on mean diameter of myotubes [3]: increased

relative increase in the AUC ([1]; male, Sprague-Dawley, 25 mg/kg): 26%
Structure (SMILES): O=c1oc2cc(O)ccc2c2ccc(O)cc12 [Sample #3, Urolithin A]
